Laboratory results from patent US20250213560A1, “NITROGEN-CONTAINING HETEROCYCLIC COMPOUNDS HAVING PHENYL GROUP AND USES THEREOF” (BNH RESEARCH CO., LTD., priority 2022, published 2025).

Experiments:
[1] = test system: HDAC 1 to 9, and 11; assay: HDAC catalytic activity assay (fluorogenic substrate, 10-dose IC50); assay type: biochemical; details: 3-fold serial dilution starting at 100 μM, duplicates
Description: The compound was resuspended in 100 mM DMSO and tested in a 10-dose IC50 with 3-fold serial dilution starting at 100 μM against HDACs 1-9, and 11. As reference compounds, Trichostatin A (TSA) and TMP269 were tested in a 10-dose IC50 with 3-fold serial dilution starting at 10 μM or 1 μM.
10 μM Fluorogenic peptide from p53 residues 379-382 (RHKK (Ac) AMC) was used for the substrate for HDAC 1, 2, 3, and 6. 50 μM Fluorogenic HDAC Class2a Substrate (Trifluoroacetyl Lysine) was used for the substrate for HDAC 4, 5, 7, 9, and 11. 100 μM Fluorogenic peptide from p53 residues 379-382 (RHK (Ac) K (Ac) AMC) was used for the substrate for HDAC8.
IC50 values were calculated using the GraphPad Prism 4 program based on a sigmoidal dose-response equation and the blank (DMSO) value concentration was entered as 1.00E-12 M for curve fitting.
The experiments were performed in duplicates.

[2] = test system: GluN2B; assay: GluN2B expression in SH-SY5Y cells; assay type: cell-based, human; details: 1 μM, application for 6 and 24 hours
Description: Human undifferentiated neuroblastoma cell line SH-SY5Y and human embryonic kidney cell line (HEK)-293T were purchased from Korean Cell Line Bank (Korea) and Takara (Japan), respectively. Cells were grown in HyClone Minimal Essential Medium (MEM) and Dulbecco's Modified Eagle Medium (DMEM), respectively, supplemented with 10% (v/v) fetal bovine serum (FBS), penicillin (100 U/mL), and streptomycin ([…]). Cells were maintained in a humidified atmosphere of 95% air and 5% CO2 at 37° C. Cells were passaged 10 times at maximum. Cells were dissociated using 0.05% trypsin-EDTA solution and the cells were seeded in new culture dishes for maintenance.
RT-PCR was used to measure the amount of BDNF and GluN2B in response to compounds of the present disclosure. 293T cells were dissociated using 0.05% Trypsin-EDTA solution and seeded in 24 well or 6 well dishes for RNA work. After incubation at 37° C. in a humidified atmosphere with 5% CO2 for 24 hours, the culture medium was replaced by a medium containing a series of concentrations of tested compounds diluted with the DMEM without FBS. Time course experiments were performed. The same volume of DMSO was used for negative control.
Similarly, BnH12003 (1 μM) augmented BDNF and GluN2B expression by application for 6 and 24 hours in SH-SY5Y cells (FIGS. 11A and 11B).

[3] = test system: mouse barrel cortex (layer 4); assay: Ex vivo synaptic plasticity (TC EPSC potency, GABA/AMPA ratio) in barrel cortex after in vivo administration; details: C57BL/6J mice
From the text: Eight weeks old male C57BL/6J mice were anesthetized with isoflurane during surgery. The mice were then be placed in a stereotaxic frame (RWD Life Science, China). The parietal and the frontal bones were exposed by a sagittal incision of the scalp at the midline from the level of the eyes to the occipital protuberance. A small burr hole was drilled after exposing the skull. The injection cannula was placed at the following coordinates: (Mouse: Bregma-3.30, lateral-1.50, and ventral 0.7 mm). Sterile saline solution (+/−a compound of the present disclosure) was perfused at a constant flow rate of […] through the injection cannula using a mini-Os pump (DURECT Corporation ALZET Osmotic Pumps, CA). Implantation was done in layer 4 of the barrel cortex ipsilateral. To estimate extent of the diffusion of the injected compound in layer 4 barrel cortex during pump injection, methylene blue was first injected to stain the diffusion area. On average methylene blue diffused to 2000.0 μm away from the injection site (the total area of the barrel cortex region is about 1500 μm). Based on this analysis, the present inventors recorded from barrel cortex area.
The compound was diluted to 25 mg/kg using DMSO: PEG400: Saline (5:55:40). The compound was administered intraperitoneal at 10:00 a.m. daily (i.p. volume was 200 ul) for about 11 to 12 days. Control group was also administered by i.p. injection in the same manner using the vehicle (DMSO: PEG400: Saline (5:55:40)). 5 mice were used for the compound administration group and the control group, respectively.
For TC or hippocampus slice preparation, 9 to 10 weeks-old male C57BL/6J mice were anesthetized with isoflurane. Then, the brain was rapidly cooled via transcardial perfusion with ice-cold sucrose-artificial cerebrospinal fluid (aCSF). The brain was removed and placed in ice-cold sucrose aCSF. Paracoronal slices were prepared at an angle of 50° relative to the midline on a ramp at an angle of 10°. Then, slices were incubated in aCSF at 35° C. for 30 minutes to recover. […]
Whole cell recordings were made using a multiclamp 700A (Molecular devices, Sunnyvale, CA)digitized at 10 kHz and filtered at 2 kHz. Input resistance and series resistance were monitored continuously during recordings, as previously described (see Isaac, Crair, Nicoll, & Malenka, 1997, Silent synapses during development of thalamocortical inputs, DOI: 10.1016/s0896-6273 (00) 80267-6).
For the minimal stimulation protocol (Potency), VB thalamic stimulation intensity was adjusted to find the lowest intensity that elicited a mixture of synaptic responses and failures. Failure rate was calculated as the number of failures/total number of trials. […]

[4] = Os pump, 3 μM continuously for 2 weeks, barrel cortex layer 4
[5] = intraperitoneal 25 mg/kg once a day for about 11 or 12 days

## C[C@H]1CC[C@@H](C(=O)O)CN1C(=O)Cc1ccc(-c2cncnc2)cc1 [BnH12003, (3R,6S)-6-methyl-1-(2-(4-(pyrimidin-5-yl)phenyl)acetyl) piperidine-3-carboxylic acid]
[1]
  inhibitory effect on HDAC catalytic activities (10-dose IC50): did not show any inhibitory effect
[2]
  GluN2B expression: augmented
[3]; [4]
  GABA/AMPA ratio (balance of excitation/inhibition): balance of excitation/inhibition was maintained
  excitatory TC synaptic potency (TC potency): significantly increased
[3]; [5]
  GABA/AMPA ratio (balance of excitation/inhibition): maintaining the balance of excitation/inhibition
  TC synaptic potency in the sensory cortex: increase TC synaptic potency
